Measurements reported in the supplement of paper PMC10307832.

Key:
Test in all cases: relative viability (nuclei count vs DMSO), 5 days (fraction); higher = more cells survive
NCI-H1395 = test system: NCI-H1395
How it was run: (§1)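 Values are medians from duplicate plates. Each reflects relative viability, defined as the nuclei count of treated wells over that of vehicle wells. Lung cancer cell lines in 1536-well plates were pin-tool dosed one day after seeding with one drug alone or with a fixed anchor-drug dose plus five library-drug doses (not always all listed) in √10 steps, then fixed, stained and imaged at 4× after 5 days.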

RERF-LC-KJ = test system: RERF-LC-KJ
How it was run: as §1

NCI-H1437 = test system: NCI-H1437
How it was run: as §1

NCI-H2405 = test system: NCI-H2405
How it was run: as §1

NCI-H2023 = test system: NCI-H2023
How it was run: as §1

HOP-62 = test system: HOP-62
How it was run: as §1

NCI-H647 = test system: NCI-H647
How it was run: as §1

LCLC-97TM1 = test system: LCLC-97TM1
How it was run: as §1

NCI-H3122 = test system: NCI-H3122
How it was run: as §1

NCI-H1650 = test system: NCI-H1650
How it was run: as §1

NCI-H1793 = test system: NCI-H1793
How it was run: as §1

HCC-44 = test system: HCC-44
How it was run: as §1

NCI-H322M = test system: NCI-H322M
How it was run: as §1

HCC-827 = test system: HCC-827
How it was run: as §1

SK-LU-1 = test system: SK-LU-1
How it was run: as §1

LCLC-103H = test system: LCLC-103H
How it was run: as §1

NCI-H727 = test system: NCI-H727
How it was run: as §1

NCI-H1355 = test system: NCI-H1355
How it was run: as §1

LXF-289 = test system: LXF-289
How it was run: as §1

NCI-H2087 = test system: NCI-H2087
How it was run: as §1

BEN = test system: BEN
How it was run: as §1

201T = test system: 201T
How it was run: as §1

`COc1cc(N2CCC(C(N)=O)CC2)ccc1Nc1nc(N)c(Cl)c(Nc2ccccc2S(=O)(=O)C(C)C)n1` [HG-5-88-01] + Nc1ncn([C@H]2C[C@H](O)[C@@H](CO)O2)c(=O)n1 [Decitabine] (partner 2 µM) showed a relative viability (NCI-H1395; first compound 0.04 µM) of 0.765, a relative viability (NCI-H1395; first compound 0.1265 µM) of 0.712 and a relative viability (NCI-H1395; first compound 0.4 µM) of 0.789. The relative viability (NCI-H1395; first compound 1.265 µM) was 0.682, the relative viability (NCI-H1395; first compound 4 µM) was 0.751 and the relative viability (RERF-LC-KJ; first compound 0.04 µM) was 0.736. It also gave a relative viability (RERF-LC-KJ; first compound 0.1265 µM) of 0.737, a relative viability (RERF-LC-KJ; first compound 0.4 µM) of 0.7 and a relative viability (RERF-LC-KJ; first compound 1.265 µM) of 0.781. The relative viability (RERF-LC-KJ; first compound 4 µM) was 0.528, the relative viability (NCI-H1437; first compound 0.04 µM) was 0.529 and the relative viability (NCI-H1437; first compound 0.1265 µM) was 0.565. It also gave a relative viability (NCI-H1437; first compound 0.4 µM) of 0.465, a relative viability (NCI-H1437; first compound 1.265 µM) of 0.579 and a relative viability (NCI-H1437; first compound 4 µM) of 0.821. It also gave a relative viability (NCI-H2405; first compound 0.04 µM) of 0.67, a relative viability (NCI-H2405; first compound 0.1265 µM) of 0.754 and a relative viability (NCI-H2405; first compound 0.4 µM) of 0.783. For the same compound, the relative viability (NCI-H2405; first compound 1.265 µM) was 0.624, the relative viability (NCI-H2405; first compound 4 µM) was 0.672 and the relative viability (NCI-H2023; first compound 0.04 µM) was 0.223. For the same compound, the relative viability (NCI-H2023; first compound 0.1265 µM) was 0.244, the relative viability (NCI-H2023; first compound 0.4 µM) was 0.229 and the relative viability (NCI-H2023; first compound 1.265 µM) was 0.236. The relative viability (NCI-H2023; first compound 4 µM) was 0.256, the relative viability (HOP-62; first compound 0.04 µM) was 0.209 and the relative viability (HOP-62; first compound 0.1265 µM) was 0.226. The relative viability (HOP-62; first compound 0.4 µM) was 0.232, the relative viability (HOP-62; first compound 1.265 µM) was 0.252 and the relative viability (HOP-62; first compound 4 µM) was 0.28. For the same compound, the relative viability (NCI-H647; first compound 0.04 µM) was 0.375, the relative viability (NCI-H647; first compound 0.1265 µM) was 0.494 and the relative viability (NCI-H647; first compound 1.265 µM) was 0.529. For the same compound, the relative viability (NCI-H647; first compound 4 µM) was 0.679, the relative viability (LCLC-97TM1; first compound 0.04 µM) was 0.21 and the relative viability (LCLC-97TM1; first compound 0.1265 µM) was 0.219. For the same compound, the relative viability (LCLC-97TM1; first compound 0.4 µM) was 0.209, the relative viability (LCLC-97TM1; first compound 1.265 µM) was 0.229 and the relative viability (LCLC-97TM1; first compound 4 µM) was 0.128. For the same compound, the relative viability (NCI-H3122; first compound 0.04 µM) was 0.365, the relative viability (NCI-H3122; first compound 0.1265 µM) was 0.279 and the relative viability (NCI-H3122; first compound 0.4 µM) was 0.223. The relative viability (NCI-H3122; first compound 1.265 µM) was 0.127, the relative viability (NCI-H3122; first compound 4 µM) was 0.0935 and the relative viability (NCI-H1650; first compound 0.04 µM) was 0.378. The relative viability (NCI-H1650; first compound 0.1265 µM) was 0.559, the relative viability (NCI-H1650; first compound 0.4 µM) was 0.527 and the relative viability (NCI-H1650; first compound 1.265 µM) was 0.559. It also gave a relative viability (NCI-H1650; first compound 4 µM) of 0.413, a relative viability (NCI-H1793; first compound 0.04 µM) of 0.554 and a relative viability (NCI-H1793; first compound 0.1265 µM) of 0.518. The relative viability (NCI-H1793; first compound 0.4 µM) was 0.701, the relative viability (NCI-H1793; first compound 1.265 µM) was 0.408 and the relative viability (NCI-H1793; first compound 4 µM) was 0.499. The relative viability (HCC-44; first compound 0.04 µM) was 0.936, the relative viability (HCC-44; first compound 0.1265 µM) was 0.996 and the relative viability (HCC-44; first compound 0.4 µM) was 0.913. It also gave a relative viability (HCC-44; first compound 1.265 µM) of 0.996, a relative viability (HCC-44; first compound 4 µM) of 0.817 and a relative viability (NCI-H322M; first compound 0.04 µM) of 0.693. It also gave a relative viability (NCI-H322M; first compound 0.1265 µM) of 0.68, a relative viability (NCI-H322M; first compound 0.4 µM) of 0.781 and a relative viability (NCI-H322M; first compound 1.265 µM) of 0.483. The relative viability (NCI-H322M; first compound 4 µM) was 0.706, the relative viability (HCC-827; first compound 0.04 µM) was 0.292 and the relative viability (HCC-827; first compound 0.1265 µM) was 0.304. For the same compound, the relative viability (HCC-827; first compound 0.4 µM) was 0.354, the relative viability (HCC-827; first compound 1.265 µM) was 0.19 and the relative viability (HCC-827; first compound 4 µM) was 0.209. For the same compound, the relative viability (SK-LU-1; first compound 0.04 µM) was 0.525, the relative viability (SK-LU-1; first compound 0.1265 µM) was 0.595 and the relative viability (SK-LU-1; first compound 0.4 µM) was 0.598. It also gave a relative viability (SK-LU-1; first compound 1.265 µM) of 0.598, a relative viability (SK-LU-1; first compound 4 µM) of 0.344 and a relative viability (LCLC-103H; first compound 0.04 µM) of 0.776. It also gave a relative viability (LCLC-103H; first compound 0.1265 µM) of 0.735, a relative viability (LCLC-103H; first compound 0.4 µM) of 0.738 and a relative viability (LCLC-103H; first compound 1.265 µM) of 0.713. The relative viability (LCLC-103H; first compound 4 µM) was 0.74, the relative viability (NCI-H727; first compound 0.04 µM) was 0.913 and the relative viability (NCI-H727; first compound 0.1265 µM) was 0.789. It also gave a relative viability (NCI-H727; first compound 0.4 µM) of 0.837, a relative viability (NCI-H727; first compound 4 µM) of 0.672 and a relative viability (NCI-H1355; first compound 0.04 µM) of 0.337. The relative viability (NCI-H1355; first compound 0.1265 µM) was 0.382, the relative viability (NCI-H1355; first compound 0.4 µM) was 0.38 and the relative viability (NCI-H1355; first compound 1.265 µM) was 0.334. For the same compound, the relative viability (NCI-H1355; first compound 4 µM) was 0.331, the relative viability (LXF-289; first compound 0.04 µM) was 0.324 and the relative viability (LXF-289; first compound 0.1265 µM) was 0.402. For the same compound, the relative viability (LXF-289; first compound 0.4 µM) was 0.464, the relative viability (LXF-289; first compound 1.265 µM) was 0.423 and the relative viability (LXF-289; first compound 4 µM) was 0.427. For the same compound, the relative viability (NCI-H2087; first compound 0.04 µM) was 0.315, the relative viability (NCI-H2087; first compound 0.1265 µM) was 0.365 and the relative viability (NCI-H2087; first compound 0.4 µM) was 0.325. The relative viability (NCI-H2087; first compound 1.265 µM) was 0.246, the relative viability (NCI-H2087; first compound 4 µM) was 0.242 and the relative viability (BEN; first compound 0.04 µM) was 0.532. It also gave a relative viability (BEN; first compound 0.1265 µM) of 0.738, a relative viability (BEN; first compound 0.4 µM) of 0.77 and a relative viability (BEN; first compound 1.265 µM) of 0.725. It also gave a relative viability (BEN; first compound 4 µM) of 0.545, a relative viability (201T; first compound 0.04 µM) of 0.856 and a relative viability (201T; first compound 0.1265 µM) of 0.864. The relative viability (201T; first compound 1.265 µM) was 0.852 and the relative viability (201T; first compound 4 µM) was 0.891.
